Patent US20060148683A1, “Detection and treatment of intravascular lesions” (priority 2001, published 2006)
Positions of bridges follow the written chain, without caps; N, C: chain ends. Non-standard residues stand in square brackets, D forms with d. Residues, ends and D or L forms follow the SMILES beside them. ξ: configuration not given here. *: point of attachment. X1 = CN(C)c1ccc2c(-c3cc(C(=O)*)ccc3C(=O)[O-])c3ccc(=[N+](C)C)cc-3oc2c1; Ile(3ξ) = CCC(C)[C@H](N)C(=O)O; Ahx = NCCCCCC(=O)O

Legend:
Format in all cases: binding
[1] = target: T1, DD(E) fragment of fibrin (Homo sapiens, UniProt P02671+P02675+P02679, DEL433-453); test: Dissociation constant (Kd) of optical agent for DD(E) fragment of fibrin; conditions: 24° C.; read-out: Kd (μM) vs. DD(E) @ 24° C.
T1 construct: complex of the crosslinked D domains of adjacent fibrin monomers with the central E domain of fibrin
Source text: Optical agents of the invention include an OD and a FBM covalently bound to each other, either directly or via a linker (OD-L-FBM). The FBM can be a small molecule or a peptide. As used herein, the term “peptide” refers to a chain of amino acids that is about 2 to about 75 amino acids in length (e.g., 3 to 50 amino acids). Affinity of a peptide for fibrin can be expressed in terms of its dissociation constant (Kd), which is the equilibrium constant for the dissociation reaction of the peptide from the DD(E) fragment of fibrin. The term “DD(E) fragment of fibrin” refers to a fibrin subcomponent generated by proteolytic degradation of fibrin with plasmin or trypsin. The DD(E) fragment is a complex of the crosslinked D domains of adjacent fibrin monomers with the central E domain of fibrin (See, for example, Spraggon et al., Nature 389:455462 (1997)). Since DD(E) is a product resulting from the proteolysis of fibrin, one of skill in the art will understand that there may be some slight heterogeneity in its composition. The DD(E) fragment can be biotinylated and immobilized via avidin to a solid substrate (e.g., a multi-well plate). Peptides can be incubated with the immobilized DD(E) fragment in a suitable buffer and binding detected using known methodology. Methods for determining the dissociation constant of the peptide for DD(E) are set forth in WO 01/09188.
As a result of the FBM having affinity for fibrin, the optical agent also has affinity for fibrin. The term “affinity” refers to the capacity of the optical agent to be taken up by, retained by, or bound to the fibrin in the lesion. The affinity of an optical agent can be expressed in terms of its Kd, which is the equilibrium constant for the dissociation reaction of the optical agent from fibrin, and determined as discussed above for the peptide. The dissociation constant of the optical agent for DD(E) can have a value less than about 10 μM (e.g., 0.1 μM to 10 μM). In one embodiment, the dissociation constant value is less than about 5 μM. In another embodiment, the dissociation constant value is less than about 1 μM. The dissociation constant also may have a value less than about 0.3 μM (e.g., 0.2 μM).
In the methods of the present invention, the optical agent forms a fibrin-optical agent complex at the site of the lesion. The ability of the optical agent to form a fibrin-optical agent complex may be measured by examining the optical agent's dissociation constant (Kd) for a DD(E) fragment of fibrin as discussed above.

[2] = target: T2, fibrin (Homo sapiens, UniProt P02671+P02675+P02679); test: Confocal fluorescence imaging of fibrin-optical agent complex on lesion formed by cross-linking fibrinogen with thrombin; conditions: 0.6 μM optical agent, 0.1 mg/mL fibrinogen, confocal fluorescence imaging ex 555 nm, em 575 nm
T2 sequence (P02671 36-629 limits assumed): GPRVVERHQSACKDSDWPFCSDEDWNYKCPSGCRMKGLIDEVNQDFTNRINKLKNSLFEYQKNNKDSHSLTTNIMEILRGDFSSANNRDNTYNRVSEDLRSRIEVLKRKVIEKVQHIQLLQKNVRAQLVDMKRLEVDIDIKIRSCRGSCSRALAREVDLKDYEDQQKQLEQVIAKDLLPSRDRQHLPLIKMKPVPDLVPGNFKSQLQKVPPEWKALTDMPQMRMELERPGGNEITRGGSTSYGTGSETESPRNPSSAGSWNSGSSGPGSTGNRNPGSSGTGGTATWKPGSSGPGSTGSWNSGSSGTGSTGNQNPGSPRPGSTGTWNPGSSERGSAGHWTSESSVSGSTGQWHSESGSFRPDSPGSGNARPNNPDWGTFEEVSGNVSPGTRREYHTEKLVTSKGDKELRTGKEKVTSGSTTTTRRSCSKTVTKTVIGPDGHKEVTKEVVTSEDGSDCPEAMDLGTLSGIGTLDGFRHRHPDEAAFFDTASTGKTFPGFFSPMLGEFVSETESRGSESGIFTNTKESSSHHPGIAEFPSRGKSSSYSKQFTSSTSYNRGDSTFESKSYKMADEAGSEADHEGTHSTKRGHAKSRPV
T2 sequence (P02675 45-491 limits assumed): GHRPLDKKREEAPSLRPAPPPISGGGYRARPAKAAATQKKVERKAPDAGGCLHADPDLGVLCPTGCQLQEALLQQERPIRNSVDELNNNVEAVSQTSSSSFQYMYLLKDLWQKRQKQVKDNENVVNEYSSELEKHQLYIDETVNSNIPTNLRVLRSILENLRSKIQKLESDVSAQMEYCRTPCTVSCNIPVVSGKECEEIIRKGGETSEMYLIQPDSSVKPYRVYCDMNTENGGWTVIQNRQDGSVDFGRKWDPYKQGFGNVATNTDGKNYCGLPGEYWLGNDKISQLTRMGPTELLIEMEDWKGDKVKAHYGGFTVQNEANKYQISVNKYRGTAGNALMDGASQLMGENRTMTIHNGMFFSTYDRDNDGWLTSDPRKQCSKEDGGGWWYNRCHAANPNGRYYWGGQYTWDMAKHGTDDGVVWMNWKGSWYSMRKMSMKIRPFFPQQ
T2 sequence (P02679 27-437 isoform P02679-2 limits assumed): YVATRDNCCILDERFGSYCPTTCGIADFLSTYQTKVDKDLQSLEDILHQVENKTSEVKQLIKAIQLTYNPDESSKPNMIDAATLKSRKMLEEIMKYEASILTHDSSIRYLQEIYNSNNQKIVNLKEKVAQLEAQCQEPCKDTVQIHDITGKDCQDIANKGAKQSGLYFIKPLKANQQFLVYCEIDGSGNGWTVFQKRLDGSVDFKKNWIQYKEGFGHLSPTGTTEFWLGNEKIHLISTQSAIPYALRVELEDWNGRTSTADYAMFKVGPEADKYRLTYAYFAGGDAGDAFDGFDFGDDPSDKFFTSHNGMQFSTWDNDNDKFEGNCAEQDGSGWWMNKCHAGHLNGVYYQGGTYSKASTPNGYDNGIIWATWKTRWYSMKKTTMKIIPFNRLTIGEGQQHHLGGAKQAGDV
Procedure: Site 2/fibrin: 0.1 mg/mL of fibrinogen was mixed with 0.6 μM of an optical agent (Structure XI, see FIG. 3) comprising tetramethylrhodamine as the optical dye. The mixture was coated (approximately 4-20 μL) onto a glass slide and cross-linking of fibrinogen was initiated with 1.3 μg/L of thrombin. Clotting occurred in approximately 15 sec. The slide was imaged using confocal fluorescence imaging (ex 555 nm, em 575 nm).
Site 1/fibrin: 0.1 mg/mL of fibrinogen was mixed with 0.6 μM of an optical agent (Structure X) comprising tetramethylrhodamine as the optical dye. The mixture was coated (approximately 4-20 μL) onto a glass slide and cross-linking of fibrinogen was initiated with 1.3 μg/L of thrombin. Clotting occurred in about 15-20 seconds. The slide was imaged using confocal fluorescence imaging (ex 555 nm, em 575 nm).

[3] = target: T3, fibrin on a lesion (plasma clot) (Homo sapiens, UniProt P02671+P02675+P02679); test: Confocal fluorescence imaging of fibrin-optical agent complex on plasma clot formed by clotting human plasma with thrombin; conditions: 0.6 μM optical agent, platelet rich human plasma, confocal fluorescence imaging ex 555 nm, em 575 nm
T3 construct: from tissue; host or cells: platelet rich human plasma
T3 sequence (P02671 36-629 limits assumed): T2 sequence (P02671 36-629 limits assumed)
T3 sequence (P02675 45-491 limits assumed): T2 sequence (P02675 45-491 limits assumed)
T3 sequence (P02679 27-437 isoform P02679-2 limits assumed): T2 sequence (P02679 27-437 isoform P02679-2 limits assumed)
Procedure: Site 2/plasma clot: human plasma (platelet rich human plasma) was mixed with 0.6 μM of an optical agent (Structure XI, see FIG. 3) comprising tetramethylrhodamine as the optical dye. The mixture was coated onto a glass slide (approximately 4-20 μL) and clotting of plasma was initiated with 1.3 μg/L of thrombin. Clotting occurred within 15 sec. The slide was imaged using confocal fluorescence imaging (ex 555 nm, em 575 nm).

With `CCC(C)[C@H](NC(=O)[C@H](Cc1c[nH]c2ccccc12)NC(=O)[C@@H]1CSSC[C@H](NC(=O)[C@H](CCC(=O)O)NC(=O)[C@H](Cc2c[nH]c3ccccc23)NC(=O)[C@H](CCC(N)=O)NC(=O)CCCCCNC(=O)c2ccc(C(=O)[O-])c(-c3c4ccc(=[N+](C)C)cc-4oc4cc(N(C)C)ccc34)c2)C(=O)N2CCC[C@H]2C(=O)N[C@@H](Cc2ccc(O)cc2)C(=O)NCC(=O)N[C@@H](CC(C)C)C(=O)N1)C(=O)N[C@@H](CCC(N)=O)C(N)=O` (stereo partly drawn) [Structure XI] ({X1-Ahx}-QWECPYGLCW[Ile(3ξ)]Q-NH2; disulfide 4-9) the Kd [1] was 0.09 µM, the “Detection of fibrin based on signal of fibrin-optical agent complexes” value [2] was “Fibrin was detected” and the “Detection of fibrin based on signal of fibrin-optical agent complexes” value [3] was “Fibrin was detected”.
